The test system of data set [1] is root knot nematode (RKN). The experiment in a line: RKN greenhouse soil assay on cucumber plants. In kind it is in vivo. As to conditions: for percent control (galling reduction), Acetone 1 mg/kg: Acetone formulation (10% acetone in 0.05% Triton X 100). The text has this: Cucumber seeds are planted in a sandy soil mixture in two inch square plastic pots. When the cotyledons are fully opened and just as the first leaf begins to emerge, usually 7 days after planting, chemistry for the 7 day treatment is applied. One week later the chemistry for the 0 day treatment is applied. Separate plants are used for each application. The plants are generally in the 1-2 leaf stage now. At least four hours after the chemistry application the pots are inoculated with root knot nematode (RKN) eggs. Plants are rated for galling 14 days after the egg inoculation.
(§1) One milligram of chemistry per four pots is equal to one kilogram per hectare of chemical. A standard test uses four replications. For rates above 2 kg/ha, the desired amount of chemical is weighed into a 30 ml vial (example: 8 kg/ha rate =8 mg chemical in 30 ml vial). The chemical is dissolved in 2 ml of appropriate solvent, generally acetone. For rates below 2 kg/ha, 2 milligrams of chemistry is weighed into the vial and dissolved in 2 ml of the solvent. The appropriate amount of chemical concentrate is then pipetted into a separate 30 ml vial and solvent is added to bring the volume to 2 ml (example 0.5 kg/ha=0.5 ml of concentrate+1.5 ml solvent). Each dissolved concentrate is then brought to a total of 20 milliliters using 0.05% Triton X 100 surfactant solution.
(§2) Pots to be treated are moist but not saturated. To each of four pots, five milliliters of the appropriate chemical solution is pipetted to the media surface making sure to avoid contact with the base of the plant. Immediately following chemical application, using a mist nozzle, the pot surface is wetted sufficiently to saturate the pot watering in the chemistry. The chemical application is done in the morning.
(§3) Nematode eggs, either SCN or RKN, are added to distilled water to create a concentration of 1000 vermiform eggs […]. At least four hours after chemical treatment the eggs are applied to the treated pots plus non-treated check plants. A small hole about 1 cm deep is punched into the pot surface. One milliliter of the nematode egg slurry is pipetted into the hole. Immediately afterwards the hole is gently covered. Watering of the test plants is then restricted to only water as needed to prevent wilt for a period of 24 hours. After the 24 hour restricted watering, normal sub-irrigation watering is done for the duration of the test.

Data set [2] has as its system root knot nematode (RKN). The experiment in a line: RKN greenhouse soil assay on cucumber plants. The data set is classed as in vivo. Particulars: Radex emulsifiable concentrate formulation (6.25% active ingredient).
Data set [3] concerns Meloidogyne incognita. As to the kind of experiment: M. incognita miniaturized greenhouse assay on cucumber seedlings. The data set is classed as in vivo. As to conditions: 1 ppm. As for the experimental part: The test compound is dissolved in an acetone solution and added to water. A sprouted cucumber seedling is placed into a vial with dry sand and the water-chemical solution is added immediately. Twenty four hours later Meloidogyne incognita eggs are added to the vials and 10 to 12 days later the roots are evaluated for nematode galling.
Cucumber seeds are sprouted for 3 days in moist paper towels. Acceptable sprouts should be 3 to 4 cm long with several lateral roots just emerging. Stock solutions of chemistry are prepared in a mixture of acetone and Triton X100 (412 mg in 500 mL) to a final concentration of 5 mg/mL. The chemical stock solution is then added to 10 mL deionized water plus 0.015% Triton X100 and mixed thoroughly. This is enough to test each condition in triplicate. Ten mL dry sand is added to each vial. At this time the solubility of the chemistry is visually determined and recorded as either ppt (large precipitates) or cloudy (fine precipitates). Seedlings are planted by tilting the vial and laying the seedling in the correct orientation so that the cotyledons are just above the sand and then tilting back to cover the radicles with sand. 3.3 ml water/chemical mix is added to each vial and the vials placed in racks under fluorescent light banks. The vials are inoculated two days after planting by adding 500 vermiform M. incognita eggs to each vial in 50 uL of deionized or spring water. The vials are then kept under the fluorescent lamps at ambient room temperature and watered as needed with 1mL deionized water, usually twice during duration of test. Harvest of the cucumber plants is done 10 to 12 days after inoculation by washing sand off the roots. A root gall rating and visual phytotoxicity rating is assigned using the following scales: Gall rating scale (Gall: % root mass galled): 0=0-5%; 1=6-20%; 2=21-50%; and 3=51-100%. The average of the triplicate gall rating is then calculated: green=0.00-0.33 (no galls); yellow=0.67-1.33 (mild galling); orange=1.67-2.33 (moderate galling); red=2.67-3.00 (severe galling). Visual phytotoxicity scale is also assigned (Vis. tox; visual reduction in root mass compared to the control): rs1=mild stunting; rs2=moderate stunting; rs3=severe stunting.

Data set [4] concerns soybean cyst nematode (SCN). As to the kind of experiment: SCN greenhouse sand assay on soybean plants. In kind it is in vivo. As to conditions: Glycine max, 672 h, read-out: percent control (cyst number reduction) relative to the control blank treatment.
Source text: Soybeans seeds are planted in 100% sand in two inch square plastic pots. Chemical treatment is done when the soybeans show the first trifoliate beginning to emerge about 10 to 12 days after planting. At least four hours after chemical application the nematode soybean cyst nematode (SCN) eggs are applied and 28 days after the egg inoculation the test is harvested.
as §1, §2, §3

The format of data set [5] is in vivo. The procedure:
Acute oral toxicity testing was performed in mice in accordance with test method P203.UDP, as administered by Eurofins/Product Safety Laboratories (Dayton, New Jersey). CD-1/Swiss derived albino mice were obtained and group housed in suspended solid bottom caging. The mice were fed rodent chow and filtered tap water was supplied ad libitum. Following acclimation to the laboratory setting, a group of animals was fasted overnight by removing food from the cages. After the fasting period, three female mice were selected based on vitality and initial body weights. The individual compound doses were calculated from these body weights.
The test substance was prepared as a 1% (50 mg/kg) or 5% (500 mg/kg) weight to weight (w/w) mixture in a 0.5% w/w solution of carboxymethylcellulose (CMC) in distilled water. A tissue homogenizer was used to create a homogeneous mixture. A dose of 50 or 500 mg/kg was administered to three healthy mice per dose level by oral intubation using a ball-tipped gavage needle attached to a syringe. After administration, the animals were returned to their cages, and feed was replaced immediately after dosing.
Body weights were recorded prior to initiation and on Days 7 and 14 or a soon as possible after death.

A further data set concerns root knot nematode. As to the kind of experiment: Pre-plant incorporated (PPI) greenhouse test of root knot nematode on cucumber plants. The data set is classed as in vivo. Particulars: for pest or weed control at 4000 g/ha: 4 kg/ha, read-out: percent control (galling reduction), 4 kg/ha rate; for pest or weed control at 8000 g/ha: 8 ka/ha, read-out: percent control (galling reduction), 8 ka/ha rate. The text has this:
The PPI test examines the effect of pre-incorporation of compounds in soil and longer aging to simulate in furrow methods of nematicide application in the field. The PPI test exposes compounds to a higher volume of soil and drying which can result in more severe soil binding. Compounds are also aged for longer periods which can lead to more extensive biotic and abiotic degradation further limiting activity.
The chemically treated soil (sandy soil mix) for all treatment days (e.g., 7 days, 14 days, 21 days) treatments is potted into their appropriate pots. On the same day the 7 day treatment pots are seeded. One week later eggs are applied and 14 days after egg application the test is harvested. The 14 day treatments are planted 7 days after the first planting. The 14 day planting and 7 day inoculation happen on the same day. One week later the 14 day treatments are inoculated with eggs. These are harvested 14 days after the inoculation. The 21 day treatments are planted 14 days after the first planting. The 14 day inoculation and 21 day planting are done on the same day. One week later the 21 day plants are inoculated with eggs. The 7 day treatment is harvested the same day as the 21 day inoculation. Fourteen days after inoculation the 21 day plants are harvested.
For each compound a stock is prepared using 4 mg material in 4 ml of acetone. The soil is mixed by placing 80 ml of field soil and 320 ml of sand in a plastic bag and mixing well. The formulation for treatment is done by adding 2.13 ml (8 kg/ha rate), 1.06 ml (4 kg/ha rate) or 0.53 ml (2 kg/ha rate) to a vial and raising it with 10 ml in 0.05% X100. Soil is then treated by adding the entire 10 ml to the 400 ml of mix in the bag. The treated soil is immediately mixed well in the sealed bag to distribute the compound evenly. Approximately 95 ml is used to fill each 2-inch square pot up to the top with some soil compression and flattening. For each compound and for the control treatments 4 pots are filled. All pots are watered until moist but with no run-out through the bottom.
The PPI test simulates 8, 4 and 2 kg/ha rates incorporated 15 cm deep in the field and is equivalent to the 2, 1 and 0.5 kg/ha drench application rates in the standard 2-inch pot cucumber greenhouse assay.

For data set [6], the system named is Meloidogyne incognita. As to the kind of experiment: Fall nematicidal field test on squash.
Source text: The soil was a native prairie/pasture covering silty clay loam soil. […] Total volume of each hole was about 1.2 cubic feet. […] Holes were filled and then re-filled 5 days later after settling. […] Organic matter was 0.2% and pH was 6.8.
Treatments were arranged in a block design with the blocks laid out perpendicular to the primary slope and parallel to secondary slope. There are 7 inoculated controls and 5 non-inoculated controls and the distributions of disease severity appeared independent of location.
The resultant mix is the same as used in the standard greenhouse assays (10% acetone, 0.05% X100). The oxamyl treatments were prepared from Vydate 2L formulated the same way. The 500 ml was placed in a watering can and the entire volume was evenly sprinkled over the surface of the plot. No runoff occurred and pooling, if any, was short lived. The final drench volume was 0.58 ml/cm^2, compared to 0.2 ml/cm^2 used in our greenhouse, however the microplots are much deeper so the drench volume applied per soil volume treated is roughly the same.
Meloidogyne incognita eggs were harvested over a two week period and stored at approximately 5° C. until needed. A stock of 5.6 million vermiform eggs was adjusted to 9000/m1 in 620 ml. One day after treatment, two holes were made in each plot about 7 cm apart and equidistant from the squash plants. Five ml of egg suspension was pipetted into each hole, which was then sealed and the plot lightly watered. A total of 90,000 vermiform eggs were added to each plot.
The first root evaluation was at 28 DAT. The tops were cut off and weighed immediately in the field, and the roots were carefully dug out so as not to disturb the remaining plant.
The subject of the next data set is C. elegans. The experiment in a line: Three day C. elegans well assay. The data set is classed as in vivo. As to conditions: Caenorhabditis elegans. The procedure:
Various compounds were tested for nematicidal activity against C. elegans using contact assays in wells. The assays were performed as described below. The test compounds were solubilized in DMSO at 10 mg/ml to create 100× stock solutions. A dilution series was created by diluting the stock solution with DMSO. For each well assay 4 ul of the appropriate dilution is added to a well of a test plate. A 400 ul aliquot of bacterial stock (in M9 buffer with ampicillin and nystatin) are added to each well of the test plate. Worms are added and the test plate placed on a rotary shaker and held at 20° C. Worms are examined and scored at 4 hrs, 24 hrs, 48 hrs and 72 hours. L1 worms and L4 worms were used in the assay. L1 worms are prepared by plating eggs on a plate without a bacterial feeding layer. The eggs hatch and arrest at the L1 stage. This L1 stage population is then used to create a stock for the experiments. To create an L4 stage stock a small number of worms are taken from an overgrown and starved plate of worms and seeded on a plate with a bacterial feeder layer. A 25 ul aliquot of worms is added to each well in the assay.

[7] abbreviates: 504 h, twenty one day pre-plant incorporated.
[8] abbreviates: 336 h, fourteen day pre-plant incorporated, test a.
The mark [9] stands for this setting: fourteen day pre-plant incorporated, test a.

Consider four molecules from patent US20170367338A1, “COMPOSITIONS AND METHODS FOR IMPROVING AGRONOMIC CHARACTERISTICS OF PLANTS” (MONSANTO TECHNOLOGY LLC, priority 2014, published 2017).

The EC50 is the concentration needed to bring the measured effect to its halfway point.

SMILES strings stand for the structures. Converted amounts (≈) assume the structure as drawn. Like-named read-outs stand apart in the source and are kept apart here. Marks after values point to notes of the source that are not given here.

Consider `Brc1ccc(-c2noc(-c3cccs3)n2)cc1` [compound 1846], for which, in the data set with root knot nematode (RKN) [1], the “percent control (galling reduction), Acetone 1 mg/kg” value was determined as 88%. The “percent control (galling reduction), Radex 1 mg/kg” value with root knot nematode (RKN) [2] is recorded as 86%.

As for `Brc1ccc(-c2cnc(-c3cccs3)o2)cc1` [compound 4776], in the data set with Meloidogyne incognita [3] (Table 1C test a), the “1 ppm gall rating” value is 1 (1=6-20%). Besides, in the data set on Meloidogyne incognita [3] (Table 1C test c), the “1 ppm gall rating” value is listed as 1 (1=6-20%). Further, the pest or weed control at 500 g/ha in data set [4] (0.5 kg/ha, test c) was found to be 78%. Further, the pest or weed control at 1000 g/ha in data set [4] (1 kg/ha, test c) was 89%. The pest or weed control at 2000 g/ha in data set [4] (2 kg/ha, test a) was 99%. Besides, the “acute oral toxicity: mortality and signs” value in data set [5] (500 mg/kg oral, three female mice, observed up to 14 days) is “two animals died within three days”. Also, the oral toxicity result in data set [5] (mice, estimate based on the 50 and 500 mg/kg studies) is given as “lower than 500 mg/kg”. In the data set on root knot nematode (setting [7]), the pest or weed control at 4000 g/ha amounted to 50% and the pest or weed control at 8000 g/ha amounted to 80%. In the data set with Meloidogyne incognita [6] (2 kg ai/ha, squash), the “RW28 root weight at 28 days after treatment” value is reported as 7.5, the “RW43 root weight at 43 days after treatment” value is given as 13.0 and the “TW28 top weight at 28 days after treatment” value is 250.8. The “control of root galling compared with oxamyl at an equivalent rate” value with Meloidogyne incognita [6] (both the 28 day and the 43 day time point) is “statistically better than oxamyl”.

Take `Brc1ccc(-c2noc(-c3ccco3)n2)cc1` [compound 5467]: the “percent control (galling reduction), Acetone 1 mg/kg” value in the data set with root knot nematode (RKN) [1] is 73%. Moreover, the pest or weed control at 4000 g/ha in the data set on root knot nematode (setting [8]) stood at 76%. For the same molecule, in the data set with root knot nematode (setting [9]), the “percent control (galling reduction), 2 kg/ha rate” value is given as 71^a percent and the pest or weed control at 8000 g/ha is 100%. The “percent control (galling reduction), Radex 1 mg/kg” value in the data set with root knot nematode (RKN) [2] turned out to be 88%.

For `Cc1cc(Br)ccc1-c1noc(-c2ccco2)n1` [compound 5825], in the data set with root knot nematode (RKN) [1] (0 day treatment, 0.1 kg/ha, test a), the “percent control (galling reduction) relative to the control blank treatment” value is 50^a percent. Moreover, in the data set on root knot nematode (RKN) [1], the “percent control (galling reduction), Acetone 1 mg/kg” value was found to be 96%. Besides, the EC50 was 0.4 µg/mL (≈ 1.31 µM) in the data set with C. elegans (24 h, L1 larvae, one day of exposure, read-out: EC50 L1 1D); 1.6 µg/mL (≈ 5.24 µM) with C. elegans (24 h, L4 larvae, one day of exposure, read-out: EC50 L4 1D); 0.4 µg/mL (≈ 1.31 µM) with C. elegans (48 h, L1 larvae, two days of exposure, read-out: EC50 L1 2D); 1.6 µg/mL (≈ 5.24 µM) in the data set with C. elegans (48 h, L4 larvae, two days of exposure, read-out: EC50 L4 2D); 0.4 µg/mL (≈ 1.31 µM) in the data set with C. elegans (72 h, L1 larvae, three days of exposure, read-out: EC50 L1 3D); 1.6 µg/mL (≈ 5.24 µM) with C. elegans (72 h, L4 larvae, three days, effects on the second generation larvae, read-out: EC50 L4 3D (F1)). Further, the pest or weed control at 4000 g/ha in the data set on root knot nematode (setting [8]) is 98%. Further, the “percent control (galling reduction), 2 kg/ha rate” value with root knot nematode (setting [9]) was 69^a percent. Also, in the data set with root knot nematode (setting [9]), the pest or weed control at 8000 g/ha was 96%. The “percent control (galling reduction), Radex 1 mg/kg” value with root knot nematode (RKN) [2] amounted to 96%.
